Measurements: ChEMBL document CHEMBL1240356, “Efficacy profiles of daptomycin for treatment of invasive and noninvasive pulmonary infections with Streptococcus pneumoniae” (2010)
The source made the active and inactive calls. The rule behind the calls is not given here.

How the values were obtained:
Streptococcus pneumoniae [1] = assay: Antibacterial activity against 1.5 x 10^7 CFU Streptococcus pneumoniae serotype 19 infected in therapeutic C57BL/6 mouse model assessed as survival rate at 20 mg/kg, ip qd beginning at time of infection measured after 6 days post infection; assay type: functional; conditions: route intraperitoneal
Streptococcus pneumoniae [2] = assay: Antibacterial activity against 1.5 x 10^7 CFU Streptococcus pneumoniae serotype 2 infected in semitherapeutic C57BL/6 mouse model assessed as reduction of bacteremia at 20 mg/kg, ip measured after 1 day post infection; assay type: functional, organism-based; design: dose 20 mg/kg
Streptococcus pneumoniae [3] = assay: Antibacterial activity against high dose 1.5 x 10^7 CFU Streptococcus pneumoniae serotype 19 infected in semitherapeutic C57BL/6 mouse model assessed as reduction of bacteremia at 20 mg/kg, ip measured after 1 day post infection; assay type: functional, organism-based; design: dose 20 mg/kg
Streptococcus pneumoniae [4] = assay: Antibacterial activity against high dose 1.5 x 10^7 CFU Streptococcus pneumoniae serotype 19 infected in semitherapeutic C57BL/6 mouse model assessed as bacterial count in lung at 20 mg/kg, ip measured after 1 day post infection; assay type: functional; conditions: route intraperitoneal
Streptococcus pneumoniae [5] = assay: Antibacterial activity against high dose 1.5 x 10^7 CFU Streptococcus pneumoniae serotype 19 infected in semitherapeutic C57BL/6 mouse model assessed as reduction of bacteremia at 20 mg/kg, ip measured after 2 days post infection; assay type: functional, organism-based; design: dose 20 mg/kg
Streptococcus pneumoniae [6] = assay: Antibacterial activity against high dose 1.5 x 10^7 CFU Streptococcus pneumoniae serotype 2 infected in therapeutic C57BL/6 mouse model assessed as reduction of bacteremia at 20 mg/kg, ip measured after 4 days post infection; assay type: functional, organism-based; design: dose 20 mg/kg
Streptococcus pneumoniae [7] = assay: Antibacterial activity against 1.5 x 10^7 CFU Streptococcus pneumoniae serotype 2 infected in semitherapeutic C57BL/6 mouse model assessed as reduction of bacteremia at 20 mg/kg, ip measured after 2 days post infection; assay type: functional, organism-based; design: dose 20 mg/kg
Streptococcus pneumoniae [8] = assay: Antibacterial activity against high dose 1.5 x 10^7 CFU Streptococcus pneumoniae serotype 2 infected in therapeutic C57BL/6 mouse model assessed as bacterial count in blood at 20 mg/kg, ip measured after 3 days post infection; assay type: functional; conditions: route intraperitoneal
Streptococcus pneumoniae [9] = assay: Antibacterial activity against high dose 1.5 x 10^7 CFU Streptococcus pneumoniae serotype 2 infected in semitherapeutic C57BL/6 mouse model assessed as bacterial count in lung at 20 mg/kg, ip measured after 1 day post infection; assay type: functional; conditions: route intraperitoneal
Streptococcus pneumoniae [10] = assay: Antibacterial activity against high dose 1.5 x 10^7 CFU Streptococcus pneumoniae serotype 2 infected in therapeutic C57BL/6 mouse model assessed as bacterial count in lung at 20 mg/kg, ip measured after 3 days post infection; assay type: functional; conditions: route intraperitoneal

For `CO/N=C(\C(=O)N[C@@H]1C(=O)N2C(C(=O)O)=C(CSc3nc(=O)c(O)nn3C)CS[C@H]12)c1csc(N)n1` [CEFTRIAXONE], the Activity (Streptococcus pneumoniae [1]) was 100%, the Activity (Streptococcus pneumoniae [2]) was “Active” and the Activity (Streptococcus pneumoniae [3]) was “Active”. The log10cfu (Streptococcus pneumoniae [4]) was 0.5, the Activity (Streptococcus pneumoniae [5]) was “Active” and the Activity (Streptococcus pneumoniae [6]) was “Active”. The Activity (Streptococcus pneumoniae [7]) was “Active”, the log10cfu (Streptococcus pneumoniae [8]) was 3.3 and the log10cfu (Streptococcus pneumoniae [9]) was 0.8. It also gave a log10cfu (Streptococcus pneumoniae [10]) of 4.6.
